Some test systems named below: LOX IMVI melanoma; HS 578T breast; SNB-75 CNS; HOP-62 NSCLC; OVCAR-5 ovarian; BT-549 breast; SK-MEL-5 melanoma; HOP-92 NSCLC; PC-3 prostate; CAKI-1 renal.
Holding throughout (experiment): NCI tumour cell line growth inhibition, 48 h

SMILES strings stand for the structures.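 These data come from cells grown in 96-well plates and exposed to compound for 48 hours at five concentrations. GI50 marks 50% less growth. The concentration for full growth arrest is given as TGI.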

Turning to `COc1ccc(OC(=O)N2C/C(=C\c3ccccc3)C(=O)/C(=C/c3ccccc3)C2)cc1`, the TGI in the test with LOX IMVI melanoma is 3.22 µM; with HS 578T breast, 7.33 µM; in the test with SNB-75 CNS it was 32.6 µM; with HOP-62 NSCLC, 21.4 µM; in the test on OVCAR-5 ovarian, 27.1 µM; in the test with BT-549 breast it was 4.67 µM. The TGI in the test with SK-MEL-5 melanoma is 8.84 µM; in the test on HOP-92 NSCLC, 40.1 µM; with PC-3 prostate it was 11.2 µM.

In the case of `CCCCCc1cc(/C=C2/N=C(c3ccc[nH]3)C=C2OC)[nH]c1C`, the TGI in the test on HS 578T breast was 0.0191 µM; in the test on CAKI-1 renal, 0.0168 µM; in the test on SNB-75 CNS, less than 0.0124 µM; with HOP-62 NSCLC it was 0.362 µM; in the test on OVCAR-5 ovarian, 1.26 µM; with BT-549 breast, 0.292 µM. Also, the TGI in the test on SK-MEL-5 melanoma amounted to 0.0422 µM; in the test with HOP-92 NSCLC, 0.0213 µM; with PC-3 prostate, 1.06 µM.

Consider `c1cc[n+](Cc2c3ccccc3cc3c2ccc2ccccc23)cc1`, for which the GI50 was 3.72 µM in the test with LOX IMVI melanoma; 1.96 µM with HS 578T breast; 1.35 µM in the test with SNB-75 CNS; 2.41 µM in the test on HOP-62 NSCLC; 11.1 µM in the test with OVCAR-5 ovarian; 1.73 µM in the test on BT-549 breast. Moreover, the GI50 in the test with SK-MEL-5 melanoma is 1.77 µM; with HOP-92 NSCLC, 1.56 µM; with PC-3 prostate it was 2.8 µM. Besides, the TGI amounted to 15.8 µM in the test on LOX IMVI melanoma; 8.65 µM in the test on HS 578T breast; 5.36 µM in the test with SNB-75 CNS; 11.7 µM with HOP-62 NSCLC; 26.8 µM with OVCAR-5 ovarian; 4.6 µM with BT-549 breast. For the same molecule, the TGI was found to be 3.89 µM in the test on SK-MEL-5 melanoma, 6.97 µM in the test with HOP-92 NSCLC and 14.4 µM with PC-3 prostate.

As to `Cc1ccc(NC(=S)NNC(=S)Nc2ccc(C)cc2)cc1`, the GI50 is 6.13 µM with LOX IMVI melanoma; 4.6 µM in the test on HS 578T breast; 3.66 µM with CAKI-1 renal; 3.39 µM with SNB-75 CNS; greater than 100 µM with OVCAR-5 ovarian; greater than 100 µM in the test on BT-549 breast. Also, the GI50 was 4.36 µM with SK-MEL-5 melanoma, 6.43 µM in the test with HOP-92 NSCLC and 10.2 µM in the test with PC-3 prostate. Also, the TGI was greater than 100 µM with LOX IMVI melanoma; greater than 100 µM in the test on HS 578T breast; greater than 100 µM in the test with CAKI-1 renal; 67.3 µM with SNB-75 CNS; greater than 100 µM with OVCAR-5 ovarian; greater than 100 µM in the test with BT-549 breast. Also, the TGI in the test with SK-MEL-5 melanoma, in the test with HOP-92 NSCLC and in the test on PC-3 prostate was greater than 100 µM throughout.

`C[n+]1cccc(NC(=O)c2ccc3ccc4ccc(C(=O)Nc5ccc[n+](C)c5)nc4c3n2)c1`: the GI50 is 5.6 µM with LOX IMVI melanoma; 4.51 µM with HS 578T breast; 4.93 µM in the test on CAKI-1 renal; 1.15 µM in the test on SNB-75 CNS; 1.83 µM in the test on HOP-62 NSCLC; 47.8 µM with OVCAR-5 ovarian. The GI50 is 24 µM in the test with BT-549 breast, 7.15 µM in the test on HOP-92 NSCLC and 6.21 µM with PC-3 prostate. The TGI in the test with LOX IMVI melanoma was greater than 100 µM; in the test with HS 578T breast it was greater than 68.6 µM; in the test with CAKI-1 renal, greater than 100 µM; in the test on SNB-75 CNS, 9.9 µM; in the test on HOP-62 NSCLC, 97.5 µM; with OVCAR-5 ovarian, greater than 100 µM. The results for the TGI in the test with BT-549 breast, in the test on HOP-92 NSCLC and in the test with PC-3 prostate were greater than 100 µM, greater than 65.1 µM and greater than 100 µM, respectively.

In the case of `COC(=O)C1C(C(=O)O)C2(c3ccccc3)C(=O)C1(c1ccccc1)C(c1ccc(OC)cc1)=C2c1ccc(OC)cc1` (configuration not stated), the GI50 in the test with LOX IMVI melanoma was 33.2 µM; with HS 578T breast, 22.1 µM; in the test on CAKI-1 renal, 20.9 µM; with HOP-62 NSCLC it was 20.4 µM; with OVCAR-5 ovarian, 20.8 µM; in the test on BT-549 breast, 15.8 µM. In addition, the values for the GI50 in the test with SK-MEL-5 melanoma, in the test with HOP-92 NSCLC and in the test on PC-3 prostate were 16.8 µM, 4.87 µM and 13 µM, respectively. For the same molecule, the TGI was greater than 100 µM in the test with LOX IMVI melanoma; 72.3 µM with HS 578T breast; 43.6 µM with CAKI-1 renal; 47.5 µM in the test on HOP-62 NSCLC; 45.9 µM in the test with OVCAR-5 ovarian; 33.6 µM in the test with BT-549 breast. In addition, the TGI in the test on SK-MEL-5 melanoma was 32.4 µM; with HOP-92 NSCLC, 28.4 µM; in the test on PC-3 prostate it was 31.3 µM.

On to `CCCCCCCCCN=C(N)c1ccc(N2CCN(c3ccc(C(N)=NCCCCCCCCC)cc3)CC2)cc1`, for which the GI50 with LOX IMVI melanoma is 2.1 µM; with CAKI-1 renal, 1.86 µM; with SNB-75 CNS, 1.1 µM; with HOP-62 NSCLC, 2.72 µM; in the test on OVCAR-5 ovarian, 3.13 µM; in the test on BT-549 breast, 1.13 µM. In addition, the GI50 in the test with HOP-92 NSCLC was 4.1 µM; with PC-3 prostate, 1.74 µM. Further, the TGI is 10.7 µM in the test with LOX IMVI melanoma; 8.42 µM with CAKI-1 renal; 4.75 µM in the test on SNB-75 CNS; greater than 50 µM in the test on HOP-62 NSCLC; 11 µM in the test with OVCAR-5 ovarian; 2.71 µM in the test with BT-549 breast. Moreover, the TGI in the test with HOP-92 NSCLC is greater than 50 µM; in the test with PC-3 prostate it was 5.87 µM.

`COc1cc(-c2oc3c(OC)c(O)c(OC)c(O)c3c(=O)c2OC)cc(OC)c1OC`: the TGI was greater than 100 µM with LOX IMVI melanoma; 64.9 µM in the test with HS 578T breast; greater than 100 µM with CAKI-1 renal; 60.2 µM in the test on SNB-75 CNS; greater than 100 µM with HOP-62 NSCLC; greater than 100 µM in the test with OVCAR-5 ovarian. In addition, the TGI in the test with BT-549 breast, in the test with SK-MEL-5 melanoma and with PC-3 prostate was greater than 100 µM in each case.

For `CCN1CCN(Cc2ccc(NC(=O)Nc3nc(-c4cc(OC)c(OC)c(OC)c4)cs3)cc2C(F)(F)F)CC1`, the GI50 was 2.18 µM with LOX IMVI melanoma; 1.65 µM with HS 578T breast; 1.91 µM in the test on CAKI-1 renal; 1.19 µM in the test on SNB-75 CNS; 1.62 µM in the test with OVCAR-5 ovarian; 1.91 µM in the test on BT-549 breast. The results for the GI50 in the test on SK-MEL-5 melanoma, in the test on HOP-92 NSCLC and in the test with PC-3 prostate were 1.67 µM, 1.23 µM and 1.64 µM, respectively. The TGI with LOX IMVI melanoma was 7.14 µM; with HS 578T breast, 5.04 µM; in the test with CAKI-1 renal it was 4.9 µM; in the test on SNB-75 CNS, 3.91 µM; in the test on OVCAR-5 ovarian, 3.44 µM; with BT-549 breast, 4.58 µM. Moreover, the TGI in the test with SK-MEL-5 melanoma came out at 3.04 µM; with HOP-92 NSCLC, 4.23 µM; in the test on PC-3 prostate, 6.99 µM.

In the case of `Clc1nc(Cl)c2ncn(-c3ccccc3)c2n1`, the GI50 in the test with LOX IMVI melanoma was 1.67 µM; in the test with HS 578T breast, 7.13 µM; in the test on SNB-75 CNS it was 2.93 µM; in the test with OVCAR-5 ovarian, 15 µM; in the test with BT-549 breast it was 15.9 µM; with SK-MEL-5 melanoma it was 10.4 µM. Besides, the GI50 in the test on HOP-92 NSCLC was 2.15 µM; with PC-3 prostate, 5.29 µM. Besides, the TGI is 3.28 µM with LOX IMVI melanoma; 64.9 µM in the test on HS 578T breast; 13.9 µM in the test on SNB-75 CNS; 30.4 µM in the test with OVCAR-5 ovarian; 29.5 µM in the test on BT-549 breast; 22.3 µM in the test with SK-MEL-5 melanoma. Moreover, the TGI worked out at 5.51 µM with HOP-92 NSCLC and 20.1 µM in the test with PC-3 prostate.

On to `O=C(Cc1cc(O)ccc1O)NO`, for which the GI50 is 28.5 µM with LOX IMVI melanoma; greater than 100 µM with HS 578T breast; 26.9 µM in the test with CAKI-1 renal; greater than 100 µM with HOP-62 NSCLC; 18.7 µM with OVCAR-5 ovarian; 85.7 µM in the test with BT-549 breast. For the same molecule, the GI50 in the test on SK-MEL-5 melanoma is greater than 100 µM; in the test with HOP-92 NSCLC, 21.3 µM; in the test on PC-3 prostate, greater than 100 µM. Moreover, the TGI with LOX IMVI melanoma was 80.9 µM; in the test on HS 578T breast, greater than 100 µM; in the test with CAKI-1 renal, 81.9 µM; with HOP-62 NSCLC, greater than 100 µM; with OVCAR-5 ovarian it was 34.1 µM; in the test with BT-549 breast, greater than 100 µM. Moreover, the TGI in the test with SK-MEL-5 melanoma was greater than 100 µM; with HOP-92 NSCLC, 59.6 µM; in the test with PC-3 prostate, greater than 100 µM.

Take `O=C1NC(c2ccc3ccccc3c2)Nc2ccccc21` (configuration not stated): the TGI is greater than 100 µM in the test on LOX IMVI melanoma; greater than 100 µM in the test on HS 578T breast; greater than 100 µM in the test on CAKI-1 renal; greater than 100 µM in the test on SNB-75 CNS; greater than 100 µM in the test with HOP-62 NSCLC; 37.1 µM in the test on BT-549 breast. In addition, the TGI in the test on SK-MEL-5 melanoma, with HOP-92 NSCLC and with PC-3 prostate was greater than 100 µM in each case.

With `NC(=O)c1c[nH]c2ncnc(N)c12`, the GI50 in the test on LOX IMVI melanoma is 48.6 µM; in the test on HS 578T breast, 36.4 µM; in the test on CAKI-1 renal, 2.69 µM; in the test with SNB-75 CNS, 13.3 µM; in the test on HOP-62 NSCLC it was 53.3 µM; in the test with OVCAR-5 ovarian, greater than 100 µM. Further, the GI50 in the test with BT-549 breast was 21.6 µM; with SK-MEL-5 melanoma, 84.3 µM; in the test on PC-3 prostate it was 30.3 µM. The TGI in the test with LOX IMVI melanoma was greater than 100 µM; in the test on HS 578T breast, greater than 100 µM; with CAKI-1 renal, 33.8 µM; with SNB-75 CNS, 59.3 µM; in the test with HOP-62 NSCLC, greater than 100 µM; in the test with OVCAR-5 ovarian, greater than 100 µM. Also, the TGI in the test on BT-549 breast, in the test on SK-MEL-5 melanoma and with PC-3 prostate was greater than 100 µM in each case.

`N#CC1=C(N)N=C(N2CCOCC2)C(C#N)C12Nc1ccccc1S2` (configuration not stated): the GI50 with LOX IMVI melanoma was 16.5 µM; in the test with HS 578T breast it was 1.75 µM; in the test with CAKI-1 renal, 12.6 µM; in the test with HOP-62 NSCLC, 61.4 µM; in the test on OVCAR-5 ovarian, 45.1 µM; with BT-549 breast, 23.3 µM. For the same molecule, the GI50 was 12.5 µM with SK-MEL-5 melanoma, 41.3 µM with HOP-92 NSCLC and 20.1 µM in the test on PC-3 prostate. The TGI in the test on LOX IMVI melanoma was 41.1 µM; with HS 578T breast, 7.17 µM; with CAKI-1 renal, 44.4 µM; with HOP-62 NSCLC, greater than 100 µM; in the test with OVCAR-5 ovarian it was greater than 100 µM; in the test with BT-549 breast, 60.6 µM. In addition, the TGI was 28.2 µM in the test with SK-MEL-5 melanoma, greater than 100 µM in the test on HOP-92 NSCLC and greater than 100 µM with PC-3 prostate.

These data come from PubChem BioAssay (NCI).
